Test results reported in PubChem BioAssay AID602350 (Broad Institute, 2012).

Biological target: Protein disulfide-isomerase (Homo sapiens) (UniProt P07237)
Test: PDI inhibitors, insulin aggregation turbidity, dose response, biochemical, absorbance, cherry-picked samples (AID 602350);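 note: potency is for inhibitors that reduce insulin aggregation absorbance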
Details: recombinant PDI insulin aggregation, absorbance 650 nm, 90 min

Protein disulfide-isomerase (Homo sapiens), sequence (P07237 whole entry, looked up): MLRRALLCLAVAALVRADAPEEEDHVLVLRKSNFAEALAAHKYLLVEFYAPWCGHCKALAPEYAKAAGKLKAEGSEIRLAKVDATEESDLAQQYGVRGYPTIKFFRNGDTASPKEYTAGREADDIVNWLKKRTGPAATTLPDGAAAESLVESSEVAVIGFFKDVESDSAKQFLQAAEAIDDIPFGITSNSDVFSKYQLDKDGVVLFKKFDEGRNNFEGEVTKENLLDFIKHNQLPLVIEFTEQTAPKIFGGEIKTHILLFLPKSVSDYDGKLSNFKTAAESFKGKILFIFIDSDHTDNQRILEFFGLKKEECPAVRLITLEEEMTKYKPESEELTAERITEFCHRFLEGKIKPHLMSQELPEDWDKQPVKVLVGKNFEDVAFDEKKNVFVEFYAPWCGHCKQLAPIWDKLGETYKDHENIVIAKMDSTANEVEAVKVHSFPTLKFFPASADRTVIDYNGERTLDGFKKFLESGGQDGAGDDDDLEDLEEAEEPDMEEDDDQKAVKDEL

Cc1noc(C)c1S(=O)(=O)Nc1ccc2c(c1)CC(=O)N([C@@H](C)CO)C[C@@H](C)[C@H](CN(C)S(=O)(=O)c1ccc(F)cc1)O2
AC50: 19.5 µM
